Source: PubChem BioAssay AID179 (DTP/NCI, 2004)
Where “and” joins values, the source holds several entries; their conditions need not be identical. Equal entries are not always repeated. Calls of active or inactive are those of the source.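 Rule for the calls: active = compounds giving half or more protection of infected cells from virus-caused growth loss, again on retest; inactive = the rest.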

Tested on: CEM cells HIV-1 protection, formazan growth assay
Experiment: NCI AIDS Antiviral Assay
Conditions: for IC50: measured here: growth of uninfected CEM cells
Method in brief: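 Steps: treat uninfected and HIV-1-infected human CEM cells at five drug levels; quantify growth by soluble formazan; retest any compound reaching 50% protection; classify actives from the retest.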

| SMILES | outcome | EC50 [µM] | IC50 |
| --- | --- | --- | --- |
| O=C1C2CCN(CC2)C1CNC1(c2ccccc2)CCCCC1 (centres undefined) | inactive | – | – |
| COC(=O)[C@@H]1CSC(=S)N1C(=O)C[C@@H]1CC=CC[C@@H]1CC(=O)Sc1ccccc1 | inactive | – | – |
| Clc1ccc(/C(=C/c2ccccc2)Cn2ccnc2)cc1 | – | > 200 | 35.5 µM |
| CCCc1cc(=O)oc2c3c(c4c(c12)OC(C)(C)[C@@H](OC(=O)c1ccc(Br)cc1)[C@H]4OC(=O)c1ccc(Br)cc1)O[C@@H](C)[C@H](C)[C@@H]3OC(=O)c1ccc(Br)cc1 | – | > 200 | > 200 µM |
| CC(=O)OCC(OC(C)=O)C(OC(C)=O)C(OC(C)=O)C(OC(C)=O)C(OC(C)=O)c1nc2ccccc2[nH]1 (centres undefined) | – | > 200 | > 200 µM |
| C1CSCCCSCCCSCCCSCCCSC1 | – | > 14.1 | > 14.1 µM |
| NC1(C(=O)O)CSSC1 | – | – | 10.7 µM and 8.71 µM |
| COC(=O)CCC1CCc2c(OC)ccc(O)c2C1=O (centres undefined) | inactive | – | – |
| O=C(Nc1ccc(C2=NCCN2)cc1)c1ccc(C(=O)Nc2ccc(C3=NCCN3)cc2)c([N+](=O)[O-])c1 | – | > 200 | 29.5 µM |
| COc1ccc(CCN2C(=O)C(=O)c3ccccc32)cc1OC | – | > 83.2 | 47.9 µM |
| CCC(C)[C@H](NC(=O)N[C@H](C)c1ccccc1)C(=O)OC (some centres undefined) | – | > 200 | > 200 µM |
| [O-]c1c[n+](C23CCC(c4ccccc42)c2ccccc23)no1 | – | > 200 | 97.7 µM |
| COC(=O)C1CCC(=O)N1C(c1cc(OC)c(OC)c(OC)c1)c1cccc2ccccc12 (centres undefined) | – | > 200 | 83.2 µM |
| COc1ccc(-c2onc(-c3ccc([N+](=O)[O-])cc3)c2C2=NCCCN2)cc1 | – | > 50.1 | > 50.1 µM |
| COC(=O)c1cc(C(=O)OC)c(C/C(=N/NC(=O)C[N+](C)(C)C)C(=O)Nc2cccc(C(F)(F)F)c2)nc1C/C(=N/NC(=O)C[N+](C)(C)C)C(=O)Nc1cccc(C(F)(F)F)c1 | – | > 200 | 105 µM |
| NC(=O)c1ncn2c1NC(=O)CC2 | inactive | – | – |
| CC(=O)OC/C=C/Cn1cnc(C(N)=O)c1N | – | > 200 | > 200 µM |
| Cc1c2n(c(=O)[nH]c1=O)C1OC(CO)C(O2)C1O (centres undefined) | – | > 200 | > 200 µM |
| CCCCCCCCCOC(=S)NCCCCC | inactive | – | – |
| CC1CCC(=O)C(C(O)CC2CC(=O)N(c3ccccc3)C(=O)C2)C1 (centres undefined) | – | > 200 | > 200 µM |
| C/C(CCN(C)C)=N\OC(=O)c1ccccc1 | – | > 200 | > 200 µM |
| COc1ccc(OC)c(/C=C2/C(=O)N=C(NC(C)=O)N2C)c1 | – | > 200 | > 200 µM |

| SMILES | outcome | EC50 [µM] | IC50 |
| --- | --- | --- | --- |
| CN(C)c1ccc(C(=CC=C2c3ccccc3C(=O)c3ccccc32)c2ccc(N(C)C)cc2)cc1 | – | > 3.09 | > 3.09 µM |
| O=C(O)C[n+]1ccccc1 | – | 148 | > 200 µM |
| CC1(C)CNC[C@@]2(C)OCCOCCOCCO[C@](C)(CNCC(C)(C)NC2=O)C(=O)N1 | – | > 200 | > 200 µM |
| CC(C)(C)C1=NC(=S)SC2=NC(=O)C3(NN21)c1ccccc1-c1ccccc13 | – | > 200 | 20 µM |
| N#CCc1nc(-c2ccccc2)n[nH]1 | – | > 200 | > 200 µM |
| NS(=O)(=O)c1ccc(CNC(=O)c2ccccc2SC(=O)Oc2ccc([N+](=O)[O-])cc2)cc1 | – | 1.17 | 36.3 µM |
| CC(C)[Si]([Se]c1ccccc1)(C(C)C)C(C)C | – | > 21.9 | > 21.9 µM |
| CN1C2CCCC1CC(=O)NC2 (centres undefined) | – | > 1480 | > 1480 µM |
| CC(=Nc1ccccc1C(=O)[O-])c1c([O-])ccc2c(C)cc(=O)oc12.[Ni+2].[OH3+] | – | > 2.51 | > 2.51 µM |
| CN(C)/C=C1\CCc2ccc([N+](=O)[O-])cc2C1=O | – | > 200 | 93.3 µM |
| COc1nc2sc3c(c2c(=O)n1CCCSSCCCn1c(OC)nc2sc4c(c2c1=O)CCCC4)CCCC3 | – | > 100 | > 100 µM |
| CC(=O)n1c(O)c(N=Nc2ccccc2[N+](=O)[O-])c2ccccc21 | – | > 200 | > 200 µM |
| COc1ccccc1C12OC(=O)C1(C)Oc1ccccc1C2=O (centres undefined) | inactive | – | – |
| O=C1/C(=N\[O-])C(S(=O)(=O)[O-])=Cc2cc(S(=O)(=O)[O-])cc(O)c21.O=C1/C(=N\[O-])C(S(=O)(=O)[O-])=Cc2cc(S(=O)(=O)[O-])cc(O)c21.[Cu+2] | – | > 200 | 123 µM |
| C/C=C/C(=O)N1C(=O)OC[C@@H]1c1ccccc1 | – | > 200 | 6.92 µM |
| CCN1CCC(O)(c2ccc(Oc3ccc(F)cc3)cc2)C(C(=O)c2ccc(Oc3ccc(F)cc3)cc2)C1 (centres undefined) | – | > 200 | 9.33 µM |
| O=C(NCCCN1CCN(CCCNC(=O)c2cc(-c3ccccc3)nc3ccccc23)CC1)c1cc(-c2ccccc2)nc2ccccc12 | – | > 20 | 2.4 µM |
| CC(C)CCCC(C)[C@H]1CC[C@@H]2[C@H]3CC[C@H]4C[C@@H](CCC=C(c5cc(Cl)c(OCc6ccc(C(=O)O)cc6)c(C(=O)O)c5)c5cc(Cl)c(OCc6ccc(C(=O)O)cc6)c(C(=O)O)c5)CC[C@]4(C)[C@@H]3CC[C@]12C (some centres undefined) | – | 4.17 | 112 µM |
| CC(=O)OCC1=C2C(OC(=O)C(C)C)CC3(COC(C)=O)OC3/C=C\C3(C)OC3C2OC1=O (centres undefined) | – | > 200 | 75.9 µM |
| Cn1c(CCN=C(N)CSS(=O)(=O)O)nc2ccccc21 | – | > 200 | 174 µM |
| CC12OC(=O)C(C(N)=O)=C1C=C(c1ccccc1)CC2c1ccccc1 (centres undefined) | – | > 200 | 33.1 µM |
